Key:
[1] = Cognis spreading area over fixed time, converted using oleyl oleate as control; cited from earlier work
[2] = Oil spreading time on human inner forearm (spreadability factor S^R); type: physicochemical; conditions: 4 μL oil, 12 mm×8 mm ellipse on inner forearm; for Relative Spreading Time (spreadability factor S^R): normalized to oleyl oleate, data of present work; for spreading time: two panelists in duplicate
Method: As for oil “spreadability factor”, S^R, a semi-quantitative assay was developed by applicants to determine the spreading time for the different oils that have the potential to be used in microemulsions. First, an elliptic shape with 12 mm×8 mm diameters was marked on the inner forearm of a panelist. Because of the textural orientation of the skin, the spreading trace is usually in an elliptic shape. […] According to the test, 4 μL of the tested oil was dosed in the center of the area. The time when the oil arrived at the marked outline was recorded as the spreading time of the oil. The data were obtained on two panelists with duplicate tests for each oil. The average values were taken as the results. The spreading time of oleyl oleate was than used to normalize the measured values. For example, the spreading time for oleyl oleate is 1.3+0.03 minutes for IPM so the relative spreading time for IPM is 0.5/1.3=0.4. Thus, the spreadability factor, S^R, is ratio of spread rate of selected oil (measured in minutes) to spread rate of oleyl oleate (also measured in minutes).
Using this test, examples of oil spreading times are noted below: […]

[3] = Viscosity, ARES Rheometer, strain controlled mode; type: physicochemical; conditions: 20-23° C.
Source text: The ARES Rheometer manufactured by Rheometric Scientific™ was used for measuring viscosities in strain controlled mode. Fluid behavior of the microemulsions is different from conventional skin cleansers. They are Newtonian liquids, so the viscosity is constant with varying shear rate or time. […] As noted, the viscosities of the two microemulsions are much lower than for the competitors' liquid cleansers. However, low viscosity may ease penetration into crevices. Make-up removal efficacy may be directly related to product viscosity, i.e., an increased viscosity of a product caused a reduction in make-up removal. […] Pond's Clear Solutions® Deep Pore Foaming cleanser has an even lower viscosity than the microemulsions. It is packaged in a bottle with aeration upon dispensing, providing a thick and creamy foam. Microemulsions can be used as a cleansing milk or impregnated onto a non-woven.
To simulate the effect of sebum dissolution in washing process on the viscosity of the microemulsion, 2% model sebum was dissolved in microemulsion #1. From the results, one can expect that the good properties of the microemulsion, i.e., solvency and low viscosity, will be maintained during the washing process.

Row | Molecule | Relative Spreading Time [1] | Relative Spreading Time (spreadability factor S^R) [2] | further results
1 | CCCCCCCCCCC(CO)CCCCCCCC (centres unmarked) [Octyl Dodecanol] | 0.7 | – | –
2 | CC(C)=CCC/C(C)=C/CC/C(C)=C/CC/C=C(\C)CC/C=C(\C)CCC=C(C)C [Squalene] | – | 0.8 | –
3 | CCCCCCCC/C=C\CCCCCCCCCCCC(=O)OCCCCCCCC/C=C\CCCCCCCC [Oleyl Eructate] | 1.2 | – | –
4 | Dioctyl Cyclohexane | 0.5 | – | –
5 | CCCCCCCCOCCCCCCCC [Cetiol ® OE: Di-N-Octyl Ether, Di-N-Octyl Ether] | – | 0.2 | –
6 | CCCCCCCC/C=C\CCCCCCCCO [Oleyl Alcohol] | 0.6 | – | –
7 | CC(C)CCCC(C)CCCC(C)CCCCC(C)CCCC(C)CCCC(C)C (centres unmarked) [Squalane] | – | 1.0 | –
8 | CCCCCCCC/C=C\CCCCCCCCOC(=O)CCCCCCC/C=C\CCCCCCCC [Oleyl Oleate, reference compound] | 1 | 1 | spreading time [2]: 1.3 ± 0.03 min
9 | Pentahydrosqualene | – | 2.5 | –
10 | CCCCCCCC(=O)OCC(COC(=O)CCCCCCC)OC(=O)CCCCCCC [Glycerol Tricaprylate] | – | 0.9 | –
11 | O [Water] | – | – | Viscosity at Shear Rate 10 s^−1 [3]: 1 mPa-s
12 | CCCCCCCCCCCCCCCC(=O)OC(C)C [Isopropanol Palmitate] | – | 0.7 | –
13 | CCCCCCCCCCCCCC(=O)OC(C)C [Isopropanol Myristrate] | 0.4 | 0.4 | spreading time [2]: 0.5 min

From patent publication US20030095990A1, “Microemulsion facial washes comprising specific oils” (Unilever Home & Personal Care USA, Division of Conopco, Inc., priority 2001, published 2003)
